From patent US10822337B2, “TGF-β inhibitorC” (Rigel Pharmaceuticals, Inc., priority 2015, dated 2020)

Tests used:
[1] = tested on: GDF8 signaling (GDF pSMAD, MPC11); assay: AlphaScreen SureFire SMAD3 (p-Ser423/425) assay, inhibition of GDF8 signaling; format: cell-based; settings: Mus musculus, MPC-11, p-SMAD-3 (Ser423/425) in cell lysate after GDF8 stimulation
Excerpt: (§1) Example 2: AlphaScreen® SureFire® SMAD3 (p-Ser423/425) Assay
(§2) The p-SMAD-3 (Ser423/425) SureFire® assay has been designed to measure the phosphorylation of endogenous cellular p-SMAD-3 (Ser423/425) in cell lysates and is a system for the screening of both modulators of receptor activation (e.g. agonists and antagonists) as well as agents acting intracellularly, such as small molecule inhibitors of upstream events. The assay will measure p-SMAD-3 (Ser423/425) activation by either cloned or endogenous receptors, and can be applied to primary cells.
(§3) 1× Lysis buffer: 1 ml of 5× Lysis buffer was diluted with 4 ml of sterile water. After dilution, excess 1× Lysis buffer can be frozen and thawed up to 5 times without loss in activity.
(§4) P-SMAD-3 (Ser423/425) SureFire® Assay Protocols
(§5) Step A: Preparation of Buffers
(§6) Activation buffer: The buffer was warmed slowly to 37° C. and gently mixed to re-suspend. Activation buffer can be stored at room temperature with no loss in activity.
(§7) Reaction buffer: The buffer was kept at 4° C. while in use.
(§8) AlphaScreen® Protein A IgG Kit: The kit was stored at 4° C. in the dark.
(§9) Reaction buffer+Activation buffer+AlphaScreen® Acceptor beads: Reaction buffer (40 parts), Activation Buffer (10 parts) and Acceptor beads (1 part) were mixed and the mixture was stored at room temperature and used the same day. Mixture was added to 384-well plates; excess mixturewas discarded.
(§10) Dilution buffer+AlphaScreen® Donor beads: Dilution buffer (20 parts) and Donor beads (1 part) were mixed and the mixture was stored at room temperature and used the same day. Excess mixture was discarded.
(§11) Assay control samples: After reconstitution in 250 μl of water, lysates were at −20° C. in single use aliquots.
(§12) Step B: Preparation of Samples and Cells
(§13) 96-well Assay Protocol for 293FT and RMS13 adherent cells can be carried out manually or in high throughput with liquid handling robots.
(§14) The cells (80 μL of cells for 96 well plates) were plated in collagen coated tissue culture plates in RPMI or FreeStyle medium (Invitrogen) and incubated overnight. For manual analysis, 6 plates for GDF8, 6 plates for TGFβ, and optionally 6 plates for Alk5ca(ALKS constitutively active) were used.
(§15) The compound dilution plates were prepared as follows: 12 μL of DMSO was transferred into first column of 96-well plate, and 16 μL of DMSO was transferred into columns 2-12 of the 96-well plate. 12 μL of compound solution was transferred into first column of the DMSO-containing 96-well plate. Three-fold dilution was performed up to column 10 of the DMSO-containing 96-well plate.
(§16) Step C: Treatment and Analysis
(§17) The plate containing cells were treated with compounds for about 10 minutes, and then ligand was added. GDF8 or TGFb was added to plates to stimulate. 293FL cells were stimulatedfor 90 minutes at 37° C.; and RMS13 cells were stimulated for 60 minutes at 37° C. The medium was then removed from the cells, and 1× Lysis Buffer (about 25 μL) was added and the plate was gently agitated on plate shaker for 5-10 minutes.
(§18) The lysate (5 μL) was then placed into 384-well shallow plates avoiding the generation of bubbles. To this, the Reaction Buffer+Activation Buffer+AlphaScreen® Acceptor beadsmixture (5 μL) was added. The plate was sealed with adhesive cover and shielded from light (e.g., with metal foil), and agitated gently on plate shaker for 2 hours at room temperature.
(§19) Dilution buffer+AlphaScreen® Donor beads (2 μL) was then added, and the plate was intubated on the plate shaker for an additional 1½ hours. After completion, the plate was read on Synergy-4 or Enspire plate reader, using AlphaScreen® pSMAD3® settings.
(§20) Representative results for inhibition of GDF8 (data=GDF pSMAD (MPC11) (μM)) and TGF-β (data=TGF-β pSMAD (MPC-11) (μM)) signaling are shown in Table 1: […]

[2] = tested on: TGF-β signaling (TGF-β pSMAD, MPC-11); assay: AlphaScreen SureFire SMAD3 (p-Ser423/425) assay, inhibition of TGF-β signaling; format: cell-based; settings: Mus musculus, p-SMAD-3 (Ser423/425) in cell lysate after TGF-β stimulation
Excerpt: as §1, §2, §3, §4, §5, §6, §7, §8, §9, §10, §11, §12, §13, §14, §15, §16, §17, §18, §19, §20

| Structure (SMILES) | IC50 [1] | IC50 [2] |
| --- | --- | --- |
| Cc1cc(-c2nn3c(c2-c2ccc4ncn(C)c4c2)CCC3)ccc1F [Compound 16, 6-(2-(4-Fluoro-3-methylphenyl)-5,6-dihydro-4H-pyrrolo[1,2-b]pyrazol-3-yl)-1-methyl-1H-benzo[d]imidazole] | 0.065 µM | 0.132 µM |
| Cc1cc(-c2nn3c(c2-c2ccc4ncsc4c2)CCC3)ccc1F [Compound 17, 6-(2-(4-Fluoro-3-methylphenyl)-5,6-dihydro-4H-pyrrolo[1,2-b]pyrazol-3-yl)benzo[d]thiazole] | 0.122 µM | 0.375 µM |
| Cc1cccc(-c2nn3c(c2-c2ccc4nccn4c2)CCC3)c1 [Compound 18, 6-(2-(m-Tolyl)-5,6-dihydro-4H-pyrrolo[1,2-b]pyrazol-3-yl)imidazo[1,2-a]pyridine] | 0.065 µM | 0.369 µM |
| Fc1ccc(-c2nn3c(c2-c2ccc4nccn4c2)CCC3)cc1 [Compound 19, 6-(2-(4-Fluorophenyl)-5,6-dihydro-4H-pyrrolo[1,2-b]pyrazol-3-yl)imidazo[1,2-a]pyridine] | 0.309 µM | 1.77 µM |
| Cc1cc(-c2nn3c(c2-c2ccc4nccn4c2)CCC3)ccc1F [Compound 20, 6-(2-(4-Fluoro-3-methylphenyl)-5,6-dihydro-4H-pyrrolo[1,2-b]pyrazol-3-yl)imidazo[1,2-a]pyridine] | 0.121 µM | 0.366 µM |
| COc1cccc(-c2nn3c(c2-c2ccc4nccn4c2)CCC3)c1 [Compound 21, 6-(2-(3-Methoxyphenyl)-5,6-dihydro-4H-pyrrolo[1,2-b]pyrazol-3-yl)imidazo[1,2-a]pyridine] | 0.31 µM | 1.04 µM |
| Clc1cccc(-c2nn3c(c2-c2ccc4[nH]ncc4c2)CCC3)c1 [Compound 22, 5-(2-(3-Chlorophenyl)-5,6-dihydro-4H-pyrrolo[1,2-b]pyrazol-3-yl)-1H-indazole] | 0.0925 µM | 0.183 µM |
| Clc1cccc(-c2nn3c(c2-c2ccc4cn[nH]c4c2)CCC3)c1 [Compound 23, 6-(2-(3-Chlorophenyl)-5,6-dihydro-4H-pyrrolo[1,2-b]pyrazol-3-yl)-1H-indazole] | 0.122 µM | 0.24 µM |
| Clc1cccc(-c2nn3c(c2-c2ccc4nccn4c2)CCC3)c1 [Compound 25, 6-(2-(3-Chlorophenyl)-5,6-dihydro-4H-pyrrolo[1,2-b]pyrazol-3-yl)imidazo[1,2-a]pyridine] | 0.0695 µM | 0.14 µM |
| Clc1cccc(-c2nn3c(c2-c2ccc4ncsc4c2)CCC3)c1 [Compound 26, 6-(2-(3-Chlorophenyl)-5,6-dihydro-4H-pyrrolo[1,2-b]pyrazol-3-yl)benzo[d]thiazole] | 0.067 µM | 0.133 µM |
| COc1cccc(-c2nn3c(c2-c2ccc4[nH]ncc4c2)CCC3)c1 [Compound 27, 5-(2-(3-Methoxyphenyl)-5,6-dihydro-4H-pyrrolo[1,2-b]pyrazol-3-yl)-1H-indazole] | 0.206 µM | 0.847 µM |
| COc1cccc(-c2nn3c(c2-c2ccc4cn[nH]c4c2)CCC3)c1 [Compound 28, 6-(2-(3-Methoxyphenyl)-5,6-dihydro-4H-pyrrolo[1,2-b]pyrazol-3-yl)-1H-indazole] | 0.0802 µM | 0.242 µM |
| COc1cccc(-c2nn3c(c2-c2ccc4ncn(C)c4c2)CCC3)c1 [Compound 29, 6-(2-(3-Methoxyphenyl)-5,6-dihydro-4H-pyrrolo[1,2-b]pyrazol-3-yl)-1-methyl-1H-benzo[d]imidazole] | 0.106 µM | 0.264 µM |
| COc1cccc(-c2nn3c(c2-c2ccc4ncsc4c2)CCC3)c1 [Compound 30, 6-(2-(3-Methoxyphenyl)-5,6-dihydro-4H-pyrrolo[1,2-b]pyrazol-3-yl)benzo[d]thiazole] | 0.0486 µM | 0.264 µM |
| FC(F)(F)c1cccc(-c2nn3c(c2-c2ccc4[nH]ncc4c2)CCC3)c1 [Compound 31, 5-(2-(3-Trifluoromethylphenyl)-5,6-dihydro-4H-pyrrolo[1,2-b]pyrazol-3-yl)-1H-indazole] | 0.051 µM | 0.171 µM |
| FC(F)(F)c1cccc(-c2nn3c(c2-c2ccc4cn[nH]c4c2)CCC3)c1 [Compound 32, 6-(2-(3-Trifluoromethylphenyl)-5,6-dihydro-4H-pyrrolo[1,2-b]pyrazol-3-yl)-1H-indazole] | 0.0451 µM | 0.292 µM |
| Cn1cnc2ccc(-c3c(-c4cccc(C(F)(F)F)c4)nn4c3CCC4)cc21 [Compound 33, 1-Methyl-6-(2-(3-trifluoromethylphenyl)-5,6-dihydro-4H-pyrrolo[1,2-b]pyrazol-3-yl)-1H-benzo[d]imidazole] | 0.0212 µM | 0.0421 µM |
| FC(F)(F)c1cccc(-c2nn3c(c2-c2ccc4nccn4c2)CCC3)c1 [Compound 34, 6-(2-(3-Trifluoromethylphenyl)-5,6-dihydro-4H-pyrrolo[1,2-b]pyrazol-3-yl)imidazo[1,2-a]pyridine] | 0.0083 µM | 0.0348 µM |
| FC(F)(F)c1cccc(-c2nn3c(c2-c2ccc4ncsc4c2)CCC3)c1 [Compound 35, 6-(2-(3-Trifluoromethylphenyl)-5,6-dihydro-4H-pyrrolo[1,2-b]pyrazol-3-yl)benzo[d]thiazole] | 0.0979 µM | 0.35 µM |
| Cc1cccc(-c2nn3c(c2-c2ccc4[nH]ncc4c2)OCC3)c1 [Compound 36, 7-(1H-Indazol-5-yl)-6-(m-tolyl)-2,3-dihydropyrazolo[5,1-b]oxazole] | 0.104 µM | 0.526 µM |
| Cc1cccc(-c2nn3c(c2-c2ccc4cn[nH]c4c2)OCC3)c1 [Compound 37, 7-(1H-indazol-6-yl)-6-(m-tolyl)-2,3-dihydropyrazolo[5,1-b]oxazole] | 0.0365 µM | 0.193 µM |
| Cc1cccc(-c2nn3c(c2-c2ccc4ncn(C)c4c2)OCC3)c1 [Compound 38, 7-(1-Methyl-1H-benzo[d]imidazol-6-yl)-6-(m-tolyl)-2,3-dihydropyrazolo[5,1-b]oxazole] | 0.0226 µM | 0.0579 µM |
| Cc1cccc(-c2nn3c(c2-c2ccc4ncsc4c2)OCC3)c1 [Compound 39] | 0.0596 µM | 0.175 µM |
| Cc1cccc(-c2nn3c(c2-c2ccc4[nH]ncc4c2)OCCC3)c1 [Compound 40, 3-(1H-Indazol-5-yl)-2-(m-tolyl)-6,7-dihydro-5H-pyrazolo[5,1-b][1,3]oxazine] | 0.657 µM | 2.45 µM |
| Cc1cccc(-c2nn3c(c2-c2ccc4ncn(C)c4c2)OCCC3)c1 [Compound 41, 3-(1-Methyl-1H-benzo[d]imidazol-6-yl)-2-(m-tolyl)-6,7-dihydro-5H-pyrazolo[5,1-b][1,3]oxazine] | 0.0808 µM | 0.188 µM |
| Cc1cccc(-c2nn3c(c2-c2ccc4nccn4c2)OCCC3)c1 [Compound 42, 3-(Imidazo[1,2-a]pyridin-6-yl)-2-(m-tolyl)-6,7-dihydro-5H-pyrazolo[5,1-b][1,3]oxazine] | 0.112 µM | 0.331 µM |
| Cc1cccc(-c2nn3c(c2-c2ccc4ncsc4c2)OCCC3)c1 [Compound 43, 3-(benzo[d]thiazol-6-yl)-2-(m-tolyl)-6,7-dihydro-5H-pyrazolo[5,1-b][1,3]oxazine] | 0.147 µM | 0.501 µM |
| Cc1cccc(-c2nn3c(c2-c2ccc4nccn4c2)OCC3)c1 [Compound 44, 7-(imidazo[1,2-a]pyridin-6-yl)-6-(m-tolyl)-2,3-dihydropyrazolo[5,1-b]oxazole] | 0.0233 µM | 0.105 µM |
| Fc1ccc(-c2nn3c(c2-c2ccc4ncccc4c2)CCC3)cc1 [Compound 45, 6-(2-(4-Fluorophenyl)-5,6-dihydro-4H-pyrrolo[1,2-b]pyrazol-3-yl)quinoline] | 1.08 µM | 12.6 µM |
